Data as given in patent US9155761B2, “Method for the treatment of cancer” (UNIVERSITY COLLEGE CORK, NATIONAL UNIVERSITY OF IRELAND, …, priority 2009, dated 2015).
“Also recorded” adds a separate entry of the source. Like-named read-outs stand apart in the source and are kept apart here. Residues, ends and D or L forms follow the SMILES beside them. *: point of attachment. Cbz = O=C(OCc1ccccc1)*; CH2F = FC*

What was measured:
KYSE450 [1] = assay: Evaluation of cell death morphology by light microscopy; assay type: cell-based, human
Method: (§1) Morphological features of cells treated with 5-fluorouracil (5-FU)/cisplatin, without and with 3-MA, LY294002, Bafilomycin, Lithium chloride, rapamycin or HA14-I were examined by light microscopy. Morphologies of treated cells were examined 24 and 48 hours post treatment, treatment times are referred to in figure legends. Aliquots of vehicle control and drug treated cells were cytospun onto glass slides and stained with Rapi-Diff (Braidwood laboratories, UK). The extent of apoptotic and non-apoptotic cell death was determined by counting the cells in at least three fields of view per slide, with an average of ˜100 cells per field. Apoptotic cell death is characterized by the presence of two or more of the following morphological features: cell shrinkage, chromatin condensation, DNA degradation and fragmentation into ‘apoptotic bodies’, within an intact plasma membrane. Autophagic cell death was identified by clear elevation of cytoplasmic vesicles, loss of cytoplasmic material, pyknosis of the nuclear material and an intact nuclear membrane. Cytospin images are representative of at least three independent experiments.

OE21 [2] = system: OE21
Method: as §1

[3] = system: active caspase-3 in OE21 cells; assay: Active caspase-3 by flow cytometry; assay type: cell-based, human; details: 48 hours after treatment
Method: (§2) To examine control and 5-Fluorouracil treated cells for evidence of caspase activity cells were processed by trypsinization, 48 hours after treatment. […] This was detected with an anti rabbit FITC conjugated secondary antibody, and samples were analyzed by FACScan at 530 nm (FL-1). Percentages indicate the proportion of cells with active caspase-3, detected as an increase in the number of FITC (FL-1) labelled cells.

[4] = system: active caspase-3 in OE33 cells; assay: Active caspase-3 by flow cytometry; assay type: cell-based, human; details: 48 hours after treatment
Method: as §2

[5] = system: active caspase-3 in OE19 cells; assay: Active caspase-3 by flow cytometry; assay type: cell-based, human; details: 48 hours after treatment
Method: as §2

[6] = system: active caspase-3 in KYSE450 cells; assay: Active caspase-3 by flow cytometry; assay type: cell-based, human; details: 48 hours after treatment, range of concentrations
Method: as §2

LC3 in OE33 cells = assay: LC3 / GFP-LC3 processing and distribution (Western blot, fluorescence microscopy); assay type: cell-based, human
Method: (§3) Total cellular protein extracts were prepared by scraping the cells into modified RIPA buffer (50 mM Tris HCl (pH 7.4), 150 mM NaCl, 0.25% Sodium deoxycholate, 1% Igepal, protease inhibitors 1 mM EDTA, 1× Pefabloc, 1× protease inhibitor cocktail, 1 mM Na3VO4, 1 mM NaF). All protein samples were separated by SDS-PAGE (10/12%) and electrophoretically transferred onto nitrocellulose membrane. All primary antibodies were incubated overnight at 4° C.: anti-phospho mTOR (Ser 2448) and anti-p70^S6K (Thr 389) (Cell Signaling Technologies, UK), anti-Beclin-1 (BD Biosciences, UK) and anti-LC3 (Medical & Biological Laboratories, Japan). The membranes were incubated with the relevant horseradish peroxidase conjugated secondary antibodies (DakoCytomation, Dublin) and detected by chemiluminescence (ECL Amersham, UK).
(§4) To visualize and quantify the formation of autophagic vesicles, the green fluorescent protein (GFP)-LC3 (pEGFP-LC3) expression vector, kindly supplied by Dr. T. Yoshimori (National Institute of Genetics, Japan) was used. Cells were transiently transfected with the Amaxa electroporation system according to the supplier's protocol. Twenty-four hours post transfection, cells were treated with 5-FU and/or Cisplatin, fixed in 4% paraformaldehyde in PBS and transferred onto slides using a non-fluorescent fixative for analysis by fluorescence microscopy. Alternatively, Western Blot analysis was used to assess the expression and processing of LC3. […] The membrane sequestered, lipid-conjugated form of LC3-II remains with the autophagosome membrane after the vesicle has formed, and levels of both isoform are detected by Western Blot. Transfection efficiency was consistent for a given cell line, OE33 and KYSE450 cell lines (˜60-70%) compared to OE19 and OE21 cell lines (˜30%).

LC3 in OE21 cells = assay: as above; assay type: cell-based, human; details: 5-FU or cisplatin (images not shown)
Method: as §3, §4

LC3 in OE19 cells = assay: as above; assay type: cell-based, human
Method: as §3, §4

LC3 in KYSE450 cells = assay: as above; assay type: cell-based, human
Method: as §3, §4

OE19 [7] = assay: Mitochondrial depolarization, JC-1 probe; assay type: cell-based, human; details: 48 hour treatment
Method: (§5) Mitochondrial membrane potential was determined using the JC-1 probe (Molecular Probes). In non-apoptotic cells, JC1 accumulates as aggregates in the mitochondria, which stain red (FL2; 590 nm). At the onset of apoptosis, a loss of mitochondrial membrane potential (ΔΨm) releases the aggregated JC1, returning it to its monomeric form, which stains the cytosol green (FL1; 530 nm). Therefore, fluorescence of the JC-1 probe in the FL-2 channel decreases as mitochondrial membrane integrity is lost, while the fluorescence in FL-1 channel increases. Cells were incubated in JC1 (7.5 μg/ml) at 37° C. for 15 mins, and washed prior to analysis by flow cytometry (FACScan, Becton Dickinson). Percentages denote the proportion of cells with depolarised mitochondria following 48 hour incubation with 5-Fluorouracil and represent at least three independent experiments.

KYSE450 [8] = assay: Mitochondrial depolarization, JC-1 probe; assay type: cell-based, human; details: 48 hour treatment
Method: as §5

OE33 [9] = assay: Mitochondrial depolarization, JC-1 probe; assay type: cell-based, human; details: 48 hour treatment
Method: as §5

OE21 [10] = assay: Mitochondrial depolarization, JC-1 probe; assay type: cell-based, human; details: 48 hour treatment
Method: as §5

OE19 [11] = assay: Evaluation of cell death morphology by light microscopy; assay type: cell-based, human
Method: as §1

OE33 [12] = assay: as above; assay type: cell-based, human; details: 5-FU (50 μM) or cisplatin (40 μM), 48 hours
Method: as §1

OE19 [13] = assay: MTT viability and recovery assay; assay type: cell-based, human; details: 10 μM cisplatin, 48 hours
Method: (§6) Viability of esophageal cells was assessed using the MTT reduction assay. Cells are seeded at 2×10^4 (OE33/OE19) and 1×10^4 (OE21/KYSE450) cells per cm^2, treated for 48-96 hours and incubated for an additional 60 minutes at 37° C. in 0.5 mg/ml MTT dye. Viable, metabolizing cells reduce MTT dye, producing a dark formazan product, with absorbance read at 562 nm, reference wavelength 620 nm. To assess recovery, at 48 hours post treatment, in replicate plates (identical seeding & treatment times), all drugs were removed, culture medium was replaced, and these cells were cultured for a further 48-96 hours, to monitor their ability to recover and MTT assay was repeated.
(§7) In analysis of MTT data, values are presented as the Mean absorbance+/−Standard Error of the Mean (S.E.M) for four independent experiments. Statistical analysis was performed with paired Student's t-test. Values of p<0.05 were considered statistically significant. Asterisks indicate the level of significance.

OE33 [14] = assay: MTT viability and recovery assay; assay type: cell-based, human; details: 10 μM cisplatin, 48 hours
Method: as §6, §7

OE21 [15] = assay: MTT viability and recovery assay; assay type: cell-based, human
Method: as §6, §7

KYSE450 [16] = assay type: cell-based, human
Method: as §6, §7

OE19 [17] = assay: Monodansylcadaverine (MDC)-labelled vacuoles; assay type: cell-based, human; details: 25 μM
Method: (§8) MDC is an autofluorescent weak base that accumulates in acidic lysosomal vacuoles, showing high selectivity for autophagosomes, due to the high level of unhydrolyzed membrane lipids from engulfed organelles, which enhance MDC fluorescence. Cells were incubated with 0.1 mM MDC in PBS at 37° C. for 10 minutes (Biederbick et al., 1995), washed and immediately analyzed by fluorescent microscopy.

KYSE450 [18] = assay: Monodansylcadaverine (MDC)-labelled vacuoles; assay type: cell-based, human; details: 25 μM
Method: as §8

OE33 [19] = assay: Monodansylcadaverine (MDC)-labelled vacuoles; assay type: cell-based, human; details: 25 μM
Method: as §8

OE21 [20] = assay: Monodansylcadaverine (MDC)-labelled vacuoles; assay type: cell-based, human; details: 25 μM
Method: as §8

[21] = 40 μM cisplatin, 48 hours (FIG. 1c)
[22] = 5-FU (50 μM) or cisplatin (40 μM), 48 hours
[23] = 10 nM, 24 and 48 hours post treatment

Structure (SMILES): Cn1cnc(N)c2ncnc1-2 [3-MA, 3-Methyladenine]
- morphology (KYSE450 [1]; 3-MA (10.0 μM) without and with 5-FU (50 μM), 48 hours): did not significantly affect morphology
- morphology (OE21 [2]; 3-MA without and with 5-FU (30 μM), 48 hours): did not significantly affect morphology

Structure (SMILES): N.N.[Cl][Pt][Cl] [cisplatin]
- active caspase-3 [3]: displayed active caspase-3
- active caspase-3 [4]: displayed active caspase-3
- active caspase-3 [5]: do not show caspase-3 activity
- active caspase-3 [6]: do not show caspase-3 activity
- GFP-LC3 distribution (fluorescence microscopy) (LC3 in OE33 cells; 5-FU or cisplatin (images not shown)): Diffuse cytoplasmic localization of GFP-LC3
- GFP-LC3 distribution (fluorescence microscopy) (LC3 in OE21 cells): Diffuse cytoplasmic localization of GFP-LC3
- GFP-LC3 distribution (fluorescence microscopy) (LC3 in OE19 cells; 5-FU (25 & 50 μM) or cisplatin (10 & 25 μM)): Redistribution of GFP-LC3 from a diffuse cytosolic to a punctate autophagosome-associated pattern; also recorded: bright punctate patterns of GFP-LC3 fluorescence
- GFP-LC3 distribution (fluorescence microscopy) (LC3 in KYSE450 cells; 5-FU or cisplatin (data not shown)): Redistribution of GFP-LC3 from a diffuse cytosolic to a punctate autophagosome-associated pattern
- mitochondrial depolarization (JC-1) (OE19 [7]): do not show caspase-3 activity or mitochondrial membrane depolarization
- mitochondrial depolarization (JC-1) (KYSE450 [8]): do not show caspase-3 activity or mitochondrial membrane depolarization
- mitochondrial depolarization (JC-1) (OE33 [9]): mitochondrial depolarization
- mitochondrial depolarization (JC-1) (OE21 [10]): mitochondrial depolarization
- apoptosis (OE19 [11]; [21]): 0.5%
- non-apoptotic cell death (OE19 [11]; [21]): 38%
- cell death morphology (OE19 [11]; [22]): predominantly non-apoptotic morphology
- cell death morphology (KYSE450 [1]; [22]): predominantly non-apoptotic morphology
- cell death morphology (OE33 [12]): predominantly apoptotic cell death morphology
- cell viability (MTT) (OE19 [13]): only marginally affected
- cell viability (MTT) (OE33 [14]): significant effects on cell viability
- cell viability (MTT) (OE21 [15]; 10 μM cisplatin, 48 hours): significant effects on cell viability
- cell viability (MTT) (KYSE450 [16]; 10 μM cisplatin, 48 hours): only marginally affected
- apoptotic cell death (OE21 [2]; 40 μM cisplatin, 48 hours): 31%
- non-apoptotic cell death (OE21 [2]; 40 μM cisplatin, 48 hours): 3%
- cell death morphology (OE21 [2]; [22]): predominantly apoptotic cell death morphology
- MDC staining pattern (OE19 [17]): accumulation of MDC (bright blue punctate staining) throughout the cytoplasm
- MDC staining pattern (KYSE450 [18]): accumulation of MDC (bright blue punctate staining) throughout the cytoplasm
- MDC staining pattern (OE33 [19]): MDC staining patterns are diffuse
- MDC staining pattern (OE21 [20]): MDC staining patterns are diffuse

Structure (SMILES): CCOC(=O)C1=C(N)Oc2ccc(Br)cc2C1C(C#N)C(=O)OCC (stereo not drawn) [HA14-1]
- morphology (KYSE450 [1]; HA14-1 (5 μM) and/or 5-FU (50 μM), 24 hours): rarely causes apoptosis
- morphology (KYSE450 [1]; HA14-1 (5 μM) and/or 5-FU (50 μM), 24 hours, listed as HA14-I): the induction of apoptosis is observed, but at very low levels
- morphology (KYSE450 [1]; HA14-1 (10 μM) without and with 5-FU (50 μM), 24 hours): the induction of apoptosis is apparent, but again at low levels
- morphology (KYSE450 [1]; HA14-1 (20 μM), 24 hours): rarely causes apoptosis
- morphology (KYSE450 [1]; HA14-1 (20 μM), 24 hours, listed as HA14-I): the induction of apoptosis is apparent, but again at low levels
- morphology (KYSE450 [1]; HA14-1 (30 μM), 24 hours): apoptotic cells are visible
- morphology (KYSE450 [1]; HA14-1 (30 μM), 24 hours, listed as HA14-I): induced clear levels of apoptotic cell death
- morphology (KYSE450 [1]; HA14-1 (30 μM), 48 hours): apoptotic cells are visible
- morphology (KYSE450 [1]; HA14-1 (30 μM), 48 hours, listed as HA14-I): induced clear levels of apoptotic cell death

Structure (SMILES): CO/C1=C\C(C)=C\[C@@H](C)[C@@H](O)[C@@H](C)C/C(C)=C/C=C/[C@H](OC)[C@@H]([C@@H](C)[C@@H](O)[C@H](C)[C@@]2(O)C[C@@H](O)[C@H](C)[C@@H](C(C)C)O2)OC1=O [Bafilomycin, Bafilomycin A1]
- levels of endogenous LC3 (Western blot) (LC3 in OE33 cells; [23]): induced an accumulation in the levels of endogenous LC3
- GFP-LC3 distribution (fluorescence microscopy) (LC3 in OE19 cells; 10 nM bafilomycinA1, 24 and 48 hours): accumulation of GFP-LC3 tagged autophagosomes
- levels of endogenous LC3 (Western blot) (LC3 in KYSE450 cells; [23]): induced an accumulation in the levels of endogenous LC3
- morphology (KYSE450 [1]; Bafilomycin 10.0 nM alone or with 5-FU (50 μM)): significant levels of vesicular accumulation
- cell death (MTT) (OE21 [15]): induced significant cell death
- cytotoxicity (MTT) (KYSE450 [16]; Bafilomycin 100 nM): cytotoxic alone
- viability (MTT) (KYSE450 [16]; Bafilomycin 10-100 nM): reduction in MTT
- morphology (OE21 [2]; Bafilomycin 1.0 nM alone or with 5-FU (30 μM)): significant levels of vesicular accumulation

Structure (SMILES): COC(=O)C[C@H](NC(=O)[C@H](C)NC(=O)[C@@H](NC(=O)OCc1ccccc1)C(C)C)C(=O)CF [zVAD-fmk] (Cbz-Val-Ala-Asp(OMe)-CH2F)
- inhibition of apoptosis induced by 5-FU (OE21 [2]; zVAD-fmk (25 μM) for 2 hours prior to 5-FU treatment): completely inhibited
